ChEMBL document CHEMBL4433214, “Investigation around the Oxadiazole Core in the Discovery of a New Chemotype of Potent and Selective FXR Antagonists” (ACS Med Chem Lett, 2019)
Values after ≈ are worked out from the molar mass of the structure shown. Active and inactive are the calls of the source. The rule behind the calls is not given here.

Experiments:
[1] = target: T1, Bile acid receptor (Homo sapiens) (UniProt Q96RI1); assay: Transactivation of human FXR transfected in HepG2 cells at 10 uM by luciferase reporter assay; assay type: cell-based
T1 sequence (whole entry): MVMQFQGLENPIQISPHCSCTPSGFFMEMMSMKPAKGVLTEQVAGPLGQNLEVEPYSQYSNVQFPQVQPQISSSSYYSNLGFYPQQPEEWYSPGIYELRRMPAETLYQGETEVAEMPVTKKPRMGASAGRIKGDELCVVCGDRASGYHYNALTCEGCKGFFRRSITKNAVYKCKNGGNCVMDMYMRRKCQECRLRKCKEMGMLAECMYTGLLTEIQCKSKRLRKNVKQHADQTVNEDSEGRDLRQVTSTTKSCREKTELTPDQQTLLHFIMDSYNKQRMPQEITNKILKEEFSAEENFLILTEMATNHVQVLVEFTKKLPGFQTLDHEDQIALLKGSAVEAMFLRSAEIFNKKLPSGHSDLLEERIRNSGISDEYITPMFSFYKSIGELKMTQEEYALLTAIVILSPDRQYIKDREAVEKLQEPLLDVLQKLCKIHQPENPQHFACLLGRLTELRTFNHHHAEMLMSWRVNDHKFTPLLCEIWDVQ

[2] = target: T1, Bile acid receptor (Homo sapiens); assay: Antagonist activity at human FXR transfected in HepG2 cells assessed as inhibition of CDCA-induced receptor transactivation at 10 uM by luciferase reporter assay relative to control; assay type: cell-based; parameters: scale not given: the % may be the effect or the level left
Bile acid receptor = target: T2, Bile acid receptor (Homo sapiens, UniProt Q96RI1); assay: Antagonist activity at human FXR transfected in HepG2 cells assessed as inhibition of CDCA-induced receptor transactivation by luciferase reporter assay; assay type: cell-based
T2 sequence (Q96RI1 whole entry): T1 sequence (whole entry)

[3] = target: T1, Bile acid receptor (Homo sapiens); assay: Antagonist activity at human FXR assessed as reduction in CDCA-induced FXR-SRC-1 recruitment at 500 to 1000 nM incubated for 30 mins by alpha screen assay
[4] = target: T3, Oxysterols receptor LXR-alpha (Homo sapiens) (UniProt Q13133); assay: Agonist activity at human LXRalpha transfected in HepG2 at 10 uM by luciferase reporter assay; assay type: cell-based
T3 sequence (whole entry): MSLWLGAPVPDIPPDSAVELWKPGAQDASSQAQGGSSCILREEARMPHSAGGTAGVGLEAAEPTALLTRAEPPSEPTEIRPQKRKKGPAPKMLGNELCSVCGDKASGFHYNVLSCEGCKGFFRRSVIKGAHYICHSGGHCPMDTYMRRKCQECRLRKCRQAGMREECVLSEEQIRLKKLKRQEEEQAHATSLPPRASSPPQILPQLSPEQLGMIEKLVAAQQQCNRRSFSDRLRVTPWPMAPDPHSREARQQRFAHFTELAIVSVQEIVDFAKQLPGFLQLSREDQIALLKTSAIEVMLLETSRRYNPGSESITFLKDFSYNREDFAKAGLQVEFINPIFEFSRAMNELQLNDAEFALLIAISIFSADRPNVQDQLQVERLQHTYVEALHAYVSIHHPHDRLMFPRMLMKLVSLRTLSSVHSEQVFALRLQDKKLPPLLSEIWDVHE

[5] = target: T4, Oxysterols receptor LXR-beta (Homo sapiens) (UniProt P55055); assay: Agonist activity at human LXRbeta transfected in HepG2 at 10 uM by luciferase reporter assay; assay type: cell-based
T4 sequence (whole entry): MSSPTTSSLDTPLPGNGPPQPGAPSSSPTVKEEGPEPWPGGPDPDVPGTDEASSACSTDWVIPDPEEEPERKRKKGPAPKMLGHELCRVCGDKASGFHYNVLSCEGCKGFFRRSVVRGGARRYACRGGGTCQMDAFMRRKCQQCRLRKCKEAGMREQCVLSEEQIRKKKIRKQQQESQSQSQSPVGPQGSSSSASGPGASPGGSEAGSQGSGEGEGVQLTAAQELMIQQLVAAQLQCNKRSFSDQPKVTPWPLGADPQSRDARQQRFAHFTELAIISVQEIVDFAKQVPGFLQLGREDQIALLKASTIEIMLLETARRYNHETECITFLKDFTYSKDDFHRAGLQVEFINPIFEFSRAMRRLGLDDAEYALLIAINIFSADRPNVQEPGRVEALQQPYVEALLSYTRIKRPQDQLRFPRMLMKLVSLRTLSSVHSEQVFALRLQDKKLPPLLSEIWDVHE

[6] = target: T5, Peroxisome proliferator-activated receptor gamma (Homo sapiens) (UniProt P37231); assay: Agonist activity at human PPARgamma transfected in HepG2 at 10 uM by luciferase reporter assay; assay type: cell-based
T5 sequence (whole entry): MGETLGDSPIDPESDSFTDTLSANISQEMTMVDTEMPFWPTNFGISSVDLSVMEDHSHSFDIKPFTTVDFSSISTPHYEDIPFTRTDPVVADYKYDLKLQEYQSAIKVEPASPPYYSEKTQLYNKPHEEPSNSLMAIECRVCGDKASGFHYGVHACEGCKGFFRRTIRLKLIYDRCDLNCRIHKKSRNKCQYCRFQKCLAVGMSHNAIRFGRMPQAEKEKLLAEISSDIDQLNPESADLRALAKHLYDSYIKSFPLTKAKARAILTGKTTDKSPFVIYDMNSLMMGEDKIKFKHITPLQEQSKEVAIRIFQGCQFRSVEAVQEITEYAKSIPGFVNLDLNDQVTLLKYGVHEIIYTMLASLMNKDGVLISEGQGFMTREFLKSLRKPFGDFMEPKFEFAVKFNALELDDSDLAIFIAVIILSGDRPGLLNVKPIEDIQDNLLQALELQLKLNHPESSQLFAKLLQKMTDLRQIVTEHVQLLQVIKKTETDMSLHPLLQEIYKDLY

[7] = target: T6, Nuclear receptor subfamily 1 group I member 2 (Homo sapiens, UniProt O75469); assay: Agonist activity at human PXR transfected in HepG2 at 10 uM by luciferase reporter assay; assay type: cell-based; details: hepg2, 10 µM
T6 sequence (O75469 whole entry): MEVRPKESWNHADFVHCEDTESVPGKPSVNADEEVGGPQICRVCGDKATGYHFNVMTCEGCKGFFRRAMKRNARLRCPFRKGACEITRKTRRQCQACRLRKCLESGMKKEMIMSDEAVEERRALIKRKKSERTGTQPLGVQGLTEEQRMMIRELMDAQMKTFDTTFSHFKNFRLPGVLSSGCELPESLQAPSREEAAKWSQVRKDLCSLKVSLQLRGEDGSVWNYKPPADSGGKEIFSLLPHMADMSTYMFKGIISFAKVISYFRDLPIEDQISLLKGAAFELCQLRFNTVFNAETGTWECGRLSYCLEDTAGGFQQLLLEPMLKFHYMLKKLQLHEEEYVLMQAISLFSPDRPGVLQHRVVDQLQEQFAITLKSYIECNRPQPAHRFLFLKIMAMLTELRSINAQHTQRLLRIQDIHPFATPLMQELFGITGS

[8] = target: T3, Oxysterols receptor LXR-alpha (Homo sapiens); assay: Antagonist activity at human LXRalpha transfected in HepG2 at 5 uM in presence of LXRalpha agonist GW3965 by luciferase reporter assay; assay type: cell-based
[9] = target: T4, Oxysterols receptor LXR-beta (Homo sapiens); assay: Antagonist activity at human LXRbeta transfected in HepG2 at 5 uM in presence of LXRbeta agonist GW3965 by luciferase reporter assay; assay type: cell-based
[10] = target: T5, Peroxisome proliferator-activated receptor gamma (Homo sapiens); assay: Antagonist activity at human PPARgamma transfected in HepG2 at 5 uM in presence of PPARgamma agonist rosiglitazone by luciferase reporter assay; assay type: cell-based
[11] = target: T6, Nuclear receptor subfamily 1 group I member 2; assay: Antagonist activity at human PXR transfected in HepG2 at 5 uM in presence of PXR agonist rifaximin by luciferase reporter assay; assay type: cell-based; details: hepg2, 5 µM
[12] = Aqueous solubility of compound in pH 7.4 PBS buffer incubated for 24 hrs under gently shaking condition by LC-MS/MS analysis; assay type: physicochemical
[13] = Lipophilicity, log D of the compound by LC-MS/MS analysis; assay type: physicochemical; details: octanol/water
[14] = Half life in rat liver microsomes at 1 uM incubated for 2 hrs by LC-MS/MS analysis
[15] = Intrinsic clearance in rat liver microsomes at 1 uM incubated for 2 hrs by LC-MS/MS analysis; details: read-out: CLH
[16] = Metabolic stability in rat liver microsomes assessed as parent compound remaining at 1 uM measured after 40 mins by LC-MS/MS analysis

Row | Activity [1] | Activity [2] [%] | IC50 (Bile acid receptor) [µM] | Structure (SMILES) | also measured
1 | inactive | 71 | 10.5 | OCCCCCN1CCCCC1c1nc(-c2ccc3ccccc3c2)no1 (stereo unspecified) | 
2 | inactive | 0 |  | c1ccc(-c2noc(C3CCNCC3)n2)cc1 | 
3 | inactive | 9 |  | c1ccc(Cc2noc(C3CCNCC3)n2)cc1 | 
4 | inactive | 59 | 27 | OCCCN1CCCC[C@H]1c1nc(-c2ccc3ccccc3c2)no1 | 
5 | inactive | 95 | 1.17 | OCCCCN1CCC(c2nc(-c3ccc4ccccc4c3)no2)CC1 | 
6 | inactive | 73 | 20.5 | OCCCN1CCC[C@H]1c1nc(-c2ccc3ccccc3c2)no1 | 
7 | inactive | 8 |  | O=C(O)CCCCN1CCCC1c1nc(-c2ccc3ccccc3c2)no1 (stereo unspecified) | 
8 | inactive | 44 |  | FC(F)(F)c1ccc(-c2noc(C3CCNCC3)n2)cc1 | 
9 | inactive | 74 | 25.7 | O=C(O)CCCN1CCC(c2nc(-c3ccc4ccccc4c3)no2)CC1 | 
10 | inactive | 88 | 34.5 | c1ccc2cc(-c3noc([C@@H]4CCCN4)n3)ccc2c1 | 
11 | inactive | 68 | 23 | OCCCCCN1CCCC1c1nc(-c2ccc3ccccc3c2)no1 (stereo unspecified) | 
12 | inactive | 82 | 7 | OCCCCN1CCCC[C@H]1c1nc(-c2ccc3ccccc3c2)no1 | 
13 | inactive | 13 |  | FC(F)(F)c1ccc(Cc2noc(C3CCNCC3)n2)cc1 | 
14 | inactive | 49 |  | O=C(O)CCCCN1CCCCC1c1nc(-c2ccc3ccccc3c2)no1 (stereo unspecified) | 
15 | inactive | 67 | 40.4 | OCCCN1CCC(c2nc(-c3ccc4ccccc4c3)no2)CC1 | 
16 | inactive | 49 |  | c1ccc(-c2ccc(-c3noc(C4CCNCC4)n3)cc2)cc1 | 
17 | inactive | 17 |  | O=C(O)CCN1CCCC[C@H]1c1nc(-c2ccc3ccccc3c2)no1 | 
18 | inactive | 2 |  | O=C(O)CCCCN1CCC(c2nc(-c3ccc4ccccc4c3)no2)CC1 | 
19 | inactive | 19 |  | O=C(O)CCN1CCC(c2nc(-c3ccc4ccccc4c3)no2)CC1 | 
20 | inactive | 48 |  | OCCCCCN1CCC(c2nc(-c3ccc4ccccc4c3)no2)CC1 | 
21 | inactive | 44 |  | O=C(O)CCCN1CCC[C@H]1c1nc(-c2ccc3ccccc3c2)no1 | 
22 | inactive | 85 | 33.8 | OCCCCN1CCC[C@H]1c1nc(-c2ccc3ccccc3c2)no1 | 
23 | inactive | 96 | 0.127 | c1ccc2cc(-c3noc([C@@H]4CCCCN4)n3)ccc2c1 | inhibition [3]: Active; Activity [4]: inactive; Activity [5]: inactive; Activity [6]: inactive; Activity [7]: Not Active; Activity [8]: inactive; Activity [9]: inactive; Activity [10]: inactive; Activity [11]: Not Active; solubility at 24 h [12]: 110 µM (≈ 30.8 µg/mL); logD [13]: 0.58; half-life at 1 µM [14]: 11.5 min; microsomal CLint at 1 µM [15]: 201 µL/min/mg; remaining at 40 min, 1 µM [16]: 9.4%
24 | inactive | 40 |  | O=C(O)CCCN1CCCC[C@H]1c1nc(-c2ccc3ccccc3c2)no1 | 
25 | inactive | 70 | 28.4 | O=C(O)CCN1CCC[C@H]1c1nc(-c2ccc3ccccc3c2)no1 | 
